Measurements taken from patent US20240279236A1, “COMPOUNDS AND METHODS OF TREATING TUBERCULOSIS” (Fimbrion Therapeutics, Inc., priority 2021, published 2024).

What follows are molecules tested on WT Mtb Erdman strain (assay: Microplate Alamar Blue Assay (MABA), Mtb growth inhibition). Settings: Mycobacterium tuberculosis, ERDMAN, 168 h, Middlebrook 7H9 media, 7 days at 37° C. in 5% CO2.
Format: cell-based, Mycobacterium tuberculosis
`Cc1nc(NCCCc2ccccc2)c2ncsc2n1` [Example 584, 5-methyl-N-(3-phenylpropyl)thiazolo[5,4-d]pyrimidin-7-amine] gave an IC50 of over 10000 nM. `Cc1cc2c(NCCCc3ccccc3)nc(-n3ccnn3)nc2s1` [Example 586, 6-methyl-N-(3-phenylpropyl)-2-(1H-1,2,3-triazol-1-yl)thieno[2,3-d]pyrimidin-4-amine] gave an IC50 of 200 nM. With `Cc1cc2c(NCCCc3ccc(OC(F)(F)F)cc3)nc(-n3ccnn3)nc2s1` [Example 587, 6-methyl-2-(1H-1,2,3-triazol-1-yl)-N-(3-(4-(trifluoromethoxy)phenyl)propyl)thieno[2,3-d]pyrimidin-4-amine] the IC50 was 1100 nM. Work on `CCc1nc(NCCCc2ccccc2O)c2cc(C)sc2n1` [Example 588, 2-(3-((2-ethyl-6-methylthieno[2,3-d]pyrimidin-4-yl)amino)propyl)phenol] yielded an IC50 of 4400 nM. In the case of `Cc1cc2c(NCCCc3ccccc3O)nc(C(F)(F)F)nc2s1` [Example 589, 2-(3-((6-methyl-2-(trifluoromethyl)thieno[2,3-d]pyrimidin-4-yl)amino)propyl)phenol], the IC50 is reported as over 10000 nM. In the case of `CCc1nc(NCCCc2ccc(Nc3ccccc3)cc2)c2cc(C)sc2n1` [Example 590, 2-ethyl-6-methyl-N-(3-(4-(phenylamino)phenyl)propyl)thieno[2,3-d]pyrimidin-4-amine], the IC50 is reported as 530 nM. Molecule `CCc1nc(NCCCc2ccc(N=[N+]=[N-])cc2)c2cc(C)sc2n1` [Example 591, N-(3-(4-azidophenyl)propyl)-2-ethyl-6-methylthieno[2,3-d]pyrimidin-4-amine] has an IC50 of over 10000 nM. In the case of `Cc1cc2c(NCCCc3ccc(N=[N+]=[N-])cc3)nc(C(F)(F)F)nc2s1` [Example 592, N-(3-(4-azidophenyl)propyl)-6-methyl-2-(trifluoromethyl)thieno[2,3-d]pyrimidin-4-amine], the IC50 is reported as 4400 nM. Molecule `CCc1nc(NCCCc2ccc(-n3ccnn3)cc2)c2cc(C)sc2n1` [Example 593, N-(3-(4-(1H-1,2,3-triazol-1-yl)phenyl)propyl)-2-ethyl-6-methylthieno[2,3-d]pyrimidin-4-amine] has an IC50 of 530 nM. `Cc1cc2c(NCCCc3ccc(-c4ccc[nH]4)cc3)nc(-c3ccoc3)nc2s1` [Example 594, 2-(furan-3-yl)-6-methyl-N-(3-[4-(1H-pyrrol-2-yl)phenyl]propyl)thieno[2,3-d]pyrimidin-4-amine] gave an IC50 of 240 nM. `Cc1cc2c(NCCCc3ccc(-c4ccc(OC(F)(F)F)cc4)cc3)nc(OCC(F)(F)F)nc2s1` [Example 596, 6-methyl-2-(2,2,2-trifluoroethoxy)-N-(3-(4′-(trifluoromethoxy)-[1,1′-biphenyl]-4-yl)propyl)thieno[2,3-d]pyrimidin-4-amine] gave an IC50 of 29 nM. In the case of `Cc1cc2c(NCCCc3ccc(-c4ccc(OC(F)(F)F)cc4)cc3)nc(SC(F)(F)F)nc2s1` [Example 597, 6-methyl-N-(3-(4′-(trifluoromethoxy)-[1,1′-biphenyl]-4-yl)propyl)-2-((trifluoromethyl)thio)thieno[2,3-d]pyrimidin-4-amine], the IC50 is reported as 6300 nM. `Cc1cc2c(NCCCc3ccc(-c4ccc(OC(F)(F)F)cc4)cc3)nc(Br)nc2s1` [Example 598, 2-bromo-6-methyl-N-(3-(4′-(trifluoromethoxy)-[1,1′-biphenyl]-4-yl)propyl)thieno[2,3-d]pyrimidin-4-amine] was tested, and the IC50 was 81 nM. For `CC(=O)Nc1nc(NCCCc2ccc(-c3ccc(OC(F)(F)F)cc3)cc2)c2cc(C)sc2n1` [Example 599, N-(6-methyl-4-((3-(4′-(trifluoromethoxy)-[1,1′-biphenyl]-4-yl)propyl)amino)thieno[2,3-d]pyrimidin-2-yl)acetamide], the IC50 was over 370 nM. `Cc1cc2c(NCCCc3ccc(-c4ccc(C(=O)O)cc4)cc3)nc(-c3ccoc3)nc2s1` [Example 601, 4′-(3-((2-(furan-3-yl)-6-methylthieno[2,3-d]pyrimidin-4-yl)amino)propyl)-[1,1′-biphenyl]-4-carboxylic acid] gave an IC50 of 530 nM. For `Cc1cc2c(NCCCc3ccc(-c4ccc(OC(F)(F)F)cc4)cc3)nc(-n3ccnn3)nc2s1` [Example 602, 6-methyl-2-(1H-1,2,3-triazol-1-yl)-N-(3-(4′-(trifluoromethoxy)-[1,1′-biphenyl]-4-yl)propyl)thieno[2,3-d]pyrimidin-4-amine], the IC50 was 190 nM. Work on `Cc1cc2c(NCCCc3ccc(-n4cccc4)cc3)nc(-c3ccoc3)nc2s1` [Example 604, 2-(furan-3-yl)-6-methyl-N-(3-[4-(1H-pyrrol-1-yl)phenyl]propyl)thieno[2,3-d]pyrimidin-4-amine] yielded an IC50 of 28 nM. `Cc1cc2c(NCCCc3ccc(-c4ccc(OC(F)(F)F)cc4)cc3)nc(C#N)nc2s1` [Example 605, 6-methyl-4-((3-[4′-(trifluoromethoxy)-[1,1′-biphenyl]-4-yl]propyl)amino)thieno[2,3-d]pyrimidine-2-carbonitrile] gave an IC50 of over 10000 nM.
